# Assay results from patent US11071730B2, “Substituted 6-azabenzimidazole compounds” (Gilead Sciences, Inc., priority 2018, dated 2021).
# Target: human HPK1 (MAP4K1) (Homo sapiens (Human), UniProt Q92918)
# Experiment: HPK1 IC50 Assay (TR-FRET biochemical kinase assay, STK S1 peptide substrate)
# Conditions: recombinant human HPK1 kinase domain 0.15 nM, 10 μM ATP, 1 μM STK S1 peptide; geometric mean of multiple experiments
# In short: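 Pre-activated recombinant kinase domain (insect cells; 0.15 nM) pre-incubated with compounds for 15 min, then 10 μM ATP and 1 μM STK S1 peptide added for 3 h at 25 °C in BES pH 7.0. Phosphorylation read by HTRF (665/620 nm). IC50 from four-parameter fits normalized to staurosporine/DMSO controls, geometric mean of repeats.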
# Sequence of human HPK1 (MAP4K1) (Q92918 17-274): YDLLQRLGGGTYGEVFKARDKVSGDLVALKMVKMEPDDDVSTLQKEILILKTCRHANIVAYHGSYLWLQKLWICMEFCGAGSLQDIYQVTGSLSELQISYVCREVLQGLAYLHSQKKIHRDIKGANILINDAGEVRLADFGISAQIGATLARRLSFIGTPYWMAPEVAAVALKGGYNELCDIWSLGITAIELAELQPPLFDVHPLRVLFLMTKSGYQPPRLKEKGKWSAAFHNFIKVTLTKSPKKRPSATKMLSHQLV
row,IC50,Structure (SMILES)
1,0.2 nM,CC(C)n1cnc2cc(-c3ccc4c(c3)N([C@H]3C[C@@H](N5CCC(C)(C)C5)C3)C(=O)C43CCN(C(=O)C4CCCOC4)CC3)nc(Nc3ccncc3F)c21 (stereo partly drawn) [Example 25]
2,0.2 nM,CC(C)n1cnc2cc(-c3ccc4c(c3)N([C@H]3C[C@@H](N5CCC(C)(C)C5)C3)C(=O)C43CCN(C(=O)C4CCOCC4)CC3)nc(Nc3ccncc3F)c21 [Example 23]
3,0.05 nM,CC(C)n1cnc2cc(-c3ccc4c(c3)N([C@H]3C[C@@H](N5C[C@@H](C)[C@@H](C)C5)C3)C(=O)C43CCN(C(=O)C(C)(C)CO)CC3)nc(Nc3ccncc3F)c21 [Example 10]
